Assay results from patent US20020128295A1, “Use of pyridoxamine for the treatment and inhibition of obesity-related complications” (priority 2000, published 2002).
Marks after values point to notes of the source that are not given here.

Experiments:
[1] = test system: Sprague-Dawley and Zucker rats; details: rat, in vivo
Experimental: (§1) All experiments were carried out in accordance with the regulations of the Institutional Animal Care and Use Committee of the University of South Carolina. Female Zucker obese (fa/fa) rats 6 weeks old, (n=14) and lean (LN) littermates (Fa/fa), also 6 weeks old (n=7) were purchased from Charles River Laboratories (Wilmington, Mass.). The fa/fa rats were divided randomly into two groups of 7 each, untreated fatty control (FC) and PM-treated (FPM) animals, the latter group receiving 2 g PM/L in the drinking water. […] All animals were housed individually with a light dark cycle of 12 hours each, and had free access to food and water.

[2] = test system: streptozotocin (STZ)-induced diabetic rat; details: earlier study, cited from earlier work
[3] = test system: Zucker obese (fa/fa) rats; assay: Fasting plasma insulin (ELISA); type: in vivo, rat
Experimental: All experiments were carried out in accordance with the regulations of the Institutional Animal Care and Use Committee of the University of South Carolina. Female Zucker obese (fa/fa) rats 6 weeks old, (n=14) and lean (LN) littermates (Fa/fa), also 6 weeks old (n=7) were purchased from Charles River Laboratories (Wilmington, Mass.). The fa/fa rats were divided randomly into two groups of 7 each, untreated fatty control (FC) and PM-treated (FPM) animals, the latter group receiving 2 g PM/L in the drinking water. […] All animals were housed individually with a light dark cycle of 12 hours each, and had free access to food and water. […] All assays for proteins and metabolites in plasma and urine were performed by microplate adaptations of current methods, using a Wallac Victor Model 1420 multilabel plate reader (Wallac, Inc., Gaithersburg, Md.). […] Plasma glucose was measured using the Trinder assay Kit (Sigma #315) and total glycated hemoglobin (GlcHb) by boronate affinity chromatography (Sigma kit #442-B). Total plasma triglycerides and cholesterol were analyzed by enzymatic, calorimetric, end-point assays using Sigma kits for triglycerides (#37, GPO Trinder) and total cholesterol (#352). Insulin was measured using a direct sandwich ELISA for rat insulin (ALPCO, Windham, N.H.). […]

[4] = test system: Zucker obese (fa/fa) rats; assay: Vascular changes in aorta and coronary arteries at necropsy; type: in vivo, rat
Experimental: All experiments were carried out in accordance with the regulations of the Institutional Animal Care and Use Committee of the University of South Carolina. Female Zucker obese (fa/fa) rats 6 weeks old, (n=14) and lean (LN) littermates (Fa/fa), also 6 weeks old (n=7) were purchased from Charles River Laboratories (Wilmington, Mass.). The fa/fa rats were divided randomly into two groups of 7 each, untreated fatty control (FC) and PM-treated (FPM) animals, the latter group receiving 2 g PM/L in the drinking water. […] All animals were housed individually with a light dark cycle of 12 hours each, and had free access to food and water. Blood was drawn from anaesthetized (isoflurane) rats by heart puncture and transferred into heparinized vacutainer tubes on ice. Plasma was separated from whole blood within 30 min by centrifugation in a refrigerated benchtop centrifuge; aliquots of plasma were stored at −70° C. until time of analysis. Rats were then killed by over-anesthetization, and liver and kidneys were removed, and both organs rinsed in phosphate buffered saline, and weighed. One kidney was cut in half transversely, and one half was removed for fixation (buffered formalin) for light microscopy. The remaining kidney and liver samples were frozen at −70° C. […]

[5] = test system: advanced lipoxidation end-products (ALEs); details: lipid peroxidation reactions in vitro; cited from earlier work
[6] = test system: Zucker obese (fa/fa) rats; assay: Renal function: urinary protein, albumin, plasma creatinine, urine volume; type: in vivo, rat
Experimental: All experiments were carried out in accordance with the regulations of the Institutional Animal Care and Use Committee of the University of South Carolina. Female Zucker obese (fa/fa) rats 6 weeks old, (n=14) and lean (LN) littermates (Fa/fa), also 6 weeks old (n=7) were purchased from Charles River Laboratories (Wilmington, Mass.). The fa/fa rats were divided randomly into two groups of 7 each, untreated fatty control (FC) and PM-treated (FPM) animals, the latter group receiving 2 g PM/L in the drinking water. […] All animals were housed individually with a light dark cycle of 12 hours each, and had free access to food and water. Progression of renal disease was assessed by measurements of plasma creatinine and urinary albumin and total urinary protein. Plasma creatinine concentration was measured by the Jaffe picric acid procedure, using Sigma kit #555-A. For urine collections, rats were housed in metabolic rat cages for 24 hr with free access to food and water. Several drops of toluene were added to the urine collection beaker to inhibit microbial growth. Urinary albumin was quantified by an ELISA assay. Rabbit antiserum to rat albumin and horseradish peroxidase (HRP)-conjugated goat anti-rabbit IgG were purchased from ICN Biomedical Research Products, Costa Mesa, Calif. Briefly, wells were coated with 50 ng of rat albumin (Sigma, St. Louis) in 0.1 M sodium carbonate buffer, pH 10.4, overnight at 4° C. […] After washing, horseradish peroxidase-conjugated goat anti-rabbit IgG (200 μL) was applied for 1 h at 25° C. with shaking, and the plate was developed with 200 μL of ABTS-reagent (2,2′-azino-bis(3-ethylbenzthiazoline-6-sulfonic acid) for 45 min at room temperature. Absorbance was measured at 405 nm. Total urinary protein was measured using the Sigma Microprotein-PR Kit. Based on preliminary experiments in which known amounts of PM were added to urine, PM increased the final absorbance readings in the protein assay, so that a correction (<10%) was applied for the PM content of the urine.

[7] = test system: Zucker obese (fa/fa) rats; assay: Plasma glucose and total glycated hemoglobin (glycemic control); type: in vivo, rat; details: for Plasma glucose: mean ± SD, 7 animals
Experimental: (§2) All experiments were carried out in accordance with the regulations of the Institutional Animal Care and Use Committee of the University of South Carolina. Female Zucker obese (fa/fa) rats 6 weeks old, (n=14) and lean (LN) littermates (Fa/fa), also 6 weeks old (n=7) were purchased from Charles River Laboratories (Wilmington, Mass.). The fa/fa rats were divided randomly into two groups of 7 each, untreated fatty control (FC) and PM-treated (FPM) animals, the latter group receiving 2 g PM/L in the drinking water. […] All animals were housed individually with a light dark cycle of 12 hours each, and had free access to food and water. Blood was obtained from the tail vein, using heparinized microhematocrit tubes, and plasma recovered by centrifugation at 4° C. All assays for proteins and metabolites in plasma and urine were performed by microplate adaptations of current methods, using a Wallac Victor Model 1420 multilabel plate reader (Wallac, Inc., Gaithersburg, Md.). […] Plasma glucose was measured using the Trinder assay Kit (Sigma #315) and total glycated hemoglobin (GlcHb) by boronate affinity chromatography (Sigma kit #442-B). Total plasma triglycerides and cholesterol were analyzed by enzymatic, calorimetric, end-point assays using Sigma kits for triglycerides (#37, GPO Trinder) and total cholesterol (#352). Insulin was measured using a direct sandwich ELISA for rat insulin (ALPCO, Windham, N.H.). Plasma PM concentration was measured by reverse phase high performance liquid chromatography (RP-HPLC) with fluorescence detection, using 293/393 nm excitation and emission wavelengths.

[8] = test system: Zucker obese (fa/fa) rats; assay: Chemical modifications (AGE/ALEs) and fluorescence in skin collagen; type: in vivo, rat
Experimental: (§3) All experiments were carried out in accordance with the regulations of the Institutional Animal Care and Use Committee of the University of South Carolina. Female Zucker obese (fa/fa) rats 6 weeks old, (n=14) and lean (LN) littermates (Fa/fa), also 6 weeks old (n=7) were purchased from Charles River Laboratories (Wilmington, Mass.). The fa/fa rats were divided randomly into two groups of 7 each, untreated fatty control (FC) and PM-treated (FPM) animals, the latter group receiving 2 g PM/L in the drinking water. […] All animals were housed individually with a light dark cycle of 12 hours each, and had free access to food and water. The insoluble fraction of skin collagen was prepared by scraping the skin with a single-edged razor blade to remove hair and adventitious tissue, followed by a series of extractions with 0.5 M NaCl, 0.5 M acetic acid and chloroform/methanol (2:1 v/v), as described previously (Dyer et al., J. Clin. Invest. 91:2463-2469 (1993)). Fructoselysine (FL), a measure of glycation of collagen, and CML, CEL, MDA-lysine and HNE-lysine were assayed by isotope dilution, selected ion monitoring gas chromatography—mass spectrometry (SIM-GC/MS), and pentosidine by RP-HPLC, all as described previously (Requena et al., Biochem. J. 322:317-325 (1997)). Levels of AGEs/ALEs were expressed relative to the FL content of the collagen in order to correct for differences in mean age of the protein (see Table 1 and Discussion, below). Collagen fluorescence (Ex=370 nm, Em=440 nm) was measured after solubilization with pepsin (20 μg/mL in 0.5 M acetic, 24 hr at 37° C.), and was normalized to the hydroxyproline content of the collagen, measured as described by Stegemann and Stalder (Clin. Chim. Acta 18:267-273 (1967)).

[9] = test system: Zucker obese (fa/fa) rats; assay: Systolic blood pressure by tail cuff plethysmography; type: in vivo, rat; details: initial 125-130 mm Hg at week 5; FC rose to 165 mm Hg
Experimental: as §1, with “and water. Blood pressure measurements were initiated at week 5 in the experiment after acclimating the animals to the apparatus, and were carried out the week following blood and urine collection. Measurements were made by tail cuff plethysmography using a Kent Scientific XBP instrument.” for “and water.”

[10] = test system: Zucker obese (fa/fa) rats; assay: Glycation (fructoselysine) of skin collagen by SIM-GC/MS; type: in vivo, rat; details: insoluble skin collagen
Experimental: as §3

[11] = test system: Zucker obese (fa/fa) rats; assay: Dyslipidemia: plasma triglycerides and total cholesterol; type: in vivo, rat
Experimental: as §2

[12] = Week 0, 2 g PM/L in drinking water
[13] = Week 16, 2 g PM/L in drinking water
[14] = Week 32, 2 g PM/L in drinking water

SMILES: Cc1ncc(CO)c(CN)c1O [PM, Pyridoxamine]
- Tolerability of the dose [1]: well tolerated
- Albuminuria and plasma creatinine ([2]; STZ-induced diabetic rat): marked reduction in albuminuria and plasma creatinine
- Development of renal disease ([2]; STZ-induced diabetic rat): significantly inhibited the development of renal disease
- Effect on glycemic control ([2]; STZ-induced diabetic rat): no effect on glycemic control
- Reduction in hyperlipidemia ([2]; STZ-rat): > 50%
- Fasting plasma insulin ([3]; 32 weeks): 7.3 ± 0.6 µg/L
- Effect on insulin resistance ([3]; fa/fa animals): did not significantly affect insulin resistance
- Aorta compared with LN animals [4]: indistinguishable from those of LN animals in all but one animal
- Changes in the aortic or coronary vasculature [4]: minimal changes
- Inhibition of formation of advanced lipoxidation end-products (ALEs) [5]: potent inhibitor
- Difference in urine volume between FC and FPM animals ([6]; at any point in the study): no significant differences in urine volume
- Urinary volume ([6]; end of the study): 27.0 mL/day
- Effect on development of proteinuria ([6]; fa/fa rat, confirmed by plasma creatinine): impressive protection against development of proteinuria
- Effect on glycemia ([7]; 32 week experiment): no effect on glycemia
- Glycated Hemoglobin [7, 12]: 6.8 ± 0.5%
- Plasma glucose [7, 12]: 6.8 ± 0.5 mM
- Glycated Hemoglobin [7, 13]: 6.5 ± 0.3%
- Plasma glucose [7, 13]: 6.9 ± 0.6 mM
- Glycated Hemoglobin [7, 14]: 6.8 ± 0.3%
- Plasma glucose [7, 14]: 6.8 ± 0.5 mM
- HNE-lysine detectability in skin collagen ([8]; 8 months): not detectable
- MDA-lysine trace amounts in skin collagen ([8]; 8 months, in 3 of 7 animals): < 2 μmol/mol FL
- MDA-Lys in skin collagen ([8]; Week 32): Trace
- Fluorescence of skin collagen ([8]; Week 32, necropsy samples, Ex=370 nm, Em=440 nm): 0.05 ± 0.02 Arbitrary Units/mol FL
- Number of samples in which MDA-lysine was measurable ([8]; Week 32, of 7 animals): (3/7)^d
- Effect on increase in CML and CEL in skin collagen ([8]; fa/fa rats): inhibited the increase in CML and CEL
- Effect on increase in Maillard-type collagen fluorescence ([8]; necropsy samples, FC 2-fold higher than LN): prevented this increase
- Effect on increase in pentosidine in skin collagen ([8]; through week 11): effective in limiting the increase in pentosidine
- MDA-lysine detectability in skin collagen ([8]; until 8 months): no MDA-lysine was detectable
- Significance of differences in pentosidine between FC and FPM rats ([8]; week 32, p=0.07): marginal
- Systolic blood pressure course [9]: remained at initial values
- Glycation of Skin Collagen FL ([10]; Week 0): 3.5 ± 0.2 mmol/mol lysine
- Glycation of Skin Collagen FL ([10]; Week 11): 3.0 ± 0.1 mmol/mol lysine
- Glycation of Skin Collagen FL ([10]; Week 32): 2.3 ± 0.3 mmol/mol lysine
- Plasma cholesterol ([11]; FC rats approximately 250 mg/dL): ~150 mg/dL
- Plasma triglycerides relative to the level in LN animals ([11]; after 10 weeks): about three
- Plasma triglycerides relative to the values observed in FC animals ([11]; after 10 weeks): less than 50%
- Effect on dyslipidemia, both triglycerides and cholesterol ([11]; fa/fa rat): significantly reduced dyslipidemia
- Plasma cholesterol, higher than in LN animals ([11]; rat, in vivo): ~50%
